Experimental data: PubChem BioAssay (NCI)
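The compound was tested at five concentrations on cells cultured in 96-well plates, with a 48-hour exposure period. At the GI50, growth is halved. The concentration for full growth arrest is given as TGI.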

How the values were obtained:
Test in all cases: DTP human tumour cell line panel, 48 h
[1] = system: 786-0 renal
[2] = system: A498 renal
[3] = system: A549 NSCLC
[4] = system: ACHN renal
[5] = system: BT-549 breast
[6] = system: CAKI-1 renal
[7] = system: CCRF-CEM leukemia
[8] = system: COLO 205 colon
[9] = system: DU-145 prostate
[10] = system: EKVX NSCLC
[11] = system: HCC-2998 colon
[12] = system: HCT-116 colon
[13] = system: HCT-15 colon
[14] = system: HL-60(TB) leukemia
[15] = system: HOP-62 NSCLC
[16] = system: HOP-92 NSCLC
[17] = system: HS 578T breast
[18] = system: HT29 colon
[19] = system: IGROV1 ovarian
[20] = system: K-562 leukemia
[21] = system: KM12 colon
[22] = system: LOX IMVI melanoma
[23] = system: M14 melanoma
[24] = system: MALME-3M melanoma
[25] = system: MCF7 breast
[26] = system: MDA-MB-231 breast
[27] = system: MDA-MB-435
[28] = system: MOLT-4 leukemia
[29] = system: NCI-H226 lung

COc1ccc2cc(-c3c(-c4ccncc4)nc(-c4ccc(S(C)=O)cc4C)n3C)ccc2c1 (configuration not stated)
GI50 [1]: 24.3 µM | TGI [1]: > 25 µM | GI50 [2]: 8.32 µM | TGI [2]: > 25 µM | GI50 [3]: 15.5 µM | TGI [3]: > 25 µM | GI50 [4]: 13.2 µM | TGI [4]: > 25 µM | GI50 [5]: > 21.9 µM | TGI [5]: > 25 µM | GI50 [6]: 6.98 µM | TGI [6]: > 25 µM | GI50 [7]: > 25 µM | TGI [7]: > 25 µM | GI50 [8]: 14.8 µM | TGI [8]: > 25 µM | GI50 [9]: > 25 µM | TGI [9]: > 25 µM | GI50 [10]: 8.34 µM | TGI [10]: > 25 µM | GI50 [11]: > 25 µM | TGI [11]: > 25 µM | GI50 [12]: 17.9 µM | TGI [12]: > 25 µM | GI50 [13]: 16.7 µM | TGI [13]: > 25 µM | GI50 [14]: 9.61 µM | TGI [14]: > 25 µM | GI50 [15]: 24.7 µM | TGI [15]: > 25 µM | GI50 [16]: 4.66 µM | TGI [16]: > 25 µM | GI50 [17]: > 25 µM | TGI [17]: > 25 µM | GI50 [18]: 10.6 µM | TGI [18]: > 25 µM | GI50 [19]: 11.1 µM | TGI [19]: > 25 µM | GI50 [20]: 13.4 µM | TGI [20]: > 25 µM | GI50 [21]: > 22.3 µM | TGI [21]: > 25 µM | GI50 [22]: 16.4 µM | TGI [22]: > 25 µM | GI50 [23]: > 21.6 µM | TGI [23]: > 25 µM | GI50 [24]: 7.04 µM | TGI [24]: > 25 µM | GI50 [25]: 14.1 µM | TGI [25]: > 25 µM | GI50 [26]: > 25 µM | TGI [26]: > 25 µM | GI50 [27]: 11.2 µM | TGI [27]: > 25 µM | GI50 [28]: 17.4 µM | TGI [28]: > 25 µM | GI50 [29]: > 20.5 µM
